Data published in ChEMBL document CHEMBL6092155, “211At radiolabeled APBA-FAPI for enhanced targeted-alpha therapy of glioma” (Eur J Med Chem, 2024).
Blank lines part the entries; values can stand above or below the molecule they belong to. The source made the active and inactive calls. The calls are words filed in the database; no cut-off is given here.

Legend:
[1] = Octanol/[…] partition coefficient, log P of the compound; assay type: physicochemical
[2] = Drug uptake in human FAPalpha-positive U-87 MG cells incubated for 120 min by gamma counter analysis relative to control; assay type: ADME, cell-based; conditions: u-87mg atcc, 2 h
[3] = Drug uptake in mouse FAPalpha-negative 4T1 cells incubated for 120 min by gamma counter analysis relative to control; assay type: ADME, cell-based; conditions: 4t1, 2 h
U-87 MG [4] = assay: Antitumor activity against human U-87 MG cells assessed as inhibition of cell proliferation by measuring reduction in number of Ki67 positive cells at 1.11 MBq, iv administered for 7 days by immunohistochemical analysis; assay type: functional, organism-based; conditions: U-87MG ATCC, time 7.0 day, tested as the 211At-labelled form
U-87 MG [5] = assay: Antitumor activity against human U-87 MG cells assessed as induction of apoptosis in tumor tissue at 1.11 MBq, iv by TUNEL analysis; assay type: functional, organism-based; conditions: U-87MG ATCC, tested as the 211At-labelled form
U-87 MG [6] = assay: Antitumor activity against human U-87 MG cells xenografted in female BALB/c nude mouse model assessed as increase in survival time at 0.74 to 1.11 MBq, iv measured upto 70 days postinjection; assay type: functional, organism-based; conditions: U-87MG ATCC, dose 0.74-1.11 MBq, time <= 70.0 day, tested as the 211At-labelled form
[7] = Stability of the compound in fetal bovine serum incubated for 3 to 24 hrs by RCP analysis (Del); assay type: ADME, cell-free; conditions: cattle, time 3-24 hrs
[8] = Stability of the compound in fetal bovine serum assessed as radiochemical purity (RCP) incubated for 3 to 24 hrs relative to control; assay type: ADME, cell-free, Bos taurus; conditions: cattle, time 3-24 hrs
[9] = Stability of compound in PBS incubated for 3 to 24 hrs assessed as radiochemical purity (RCP) relative to control; assay type: physicochemical; conditions: buffer; time 3-24 hrs
Albumin [10] = biological target: T1, Albumin (Homo sapiens, UniProt P02768); assay: Binding affinity to human serum albumin assessed as binding rate incubated for 30 min relative to control; assay type: ADME; conditions: isolated protein, 0.5 h
T1 sequence (P02768 whole entry): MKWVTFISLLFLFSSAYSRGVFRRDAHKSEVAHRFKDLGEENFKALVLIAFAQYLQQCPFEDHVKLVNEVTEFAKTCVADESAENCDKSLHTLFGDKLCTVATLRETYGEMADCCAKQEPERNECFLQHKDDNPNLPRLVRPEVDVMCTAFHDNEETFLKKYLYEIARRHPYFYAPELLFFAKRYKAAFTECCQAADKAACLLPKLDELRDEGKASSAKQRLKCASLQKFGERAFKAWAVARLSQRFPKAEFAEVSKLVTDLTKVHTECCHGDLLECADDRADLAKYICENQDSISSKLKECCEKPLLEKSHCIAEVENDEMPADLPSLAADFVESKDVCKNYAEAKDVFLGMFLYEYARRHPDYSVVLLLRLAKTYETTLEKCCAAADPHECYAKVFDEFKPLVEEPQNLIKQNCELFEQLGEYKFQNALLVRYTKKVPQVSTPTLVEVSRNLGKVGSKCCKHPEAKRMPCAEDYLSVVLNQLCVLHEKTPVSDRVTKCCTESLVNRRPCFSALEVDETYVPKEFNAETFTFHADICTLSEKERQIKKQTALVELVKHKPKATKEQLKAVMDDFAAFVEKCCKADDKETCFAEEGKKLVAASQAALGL

Albumin [11] = biological target: T1, Albumin; assay: Binding affinity to human serum albumin assessed as decrease in HAS binding incubated for 30 mins under warfarin blocking relative to control; assay type: ADME; set-up: scale not given: the % may be the effect or the level left; conditions: isolated protein, 0.5 h
Albumin [12] = biological target: T1, Albumin; assay: Binding affinity to human serum albumin assessed as decrease in HAS binding incubated for 30 mins under ibuprofen relative to control; assay type: ADME; set-up: scale not given: the % may be the effect or the level left; conditions: isolated protein, 0.5 h
[13] = Drug penetration in human FAPalpha-positive U-87 MG cells assessed as blood brain barrier translocation rate incubated upto 4 hrs by invitro BBB assay (reference value: 0.54+/-0.12%); assay type: ADME, cell-based; conditions: u-87mg atcc
[14] = Drug uptake in human FAPalpha-positive U-87 MG cells incubated for 30 to 120 min by gamma counter analysis relative to control; assay type: ADME, cell-based; conditions: u-87mg atcc, time 30-120 min
[15] = Drug uptake in human U-87 MG cells incubated for 120 min under FAPI-04 monomer blocking condition by gamma counter analysis relative to control; assay type: ADME, cell-based; conditions: u-87mg atcc, 2 h
U-87 MG [16] = assay: Antiproliferative activity against human U-87 MG cells assessed as inhibition of cell viability at 18.5 KBq incubated for 12 hrs followed by replacement with fresh media and measured after 24 hrs by CCK-8 method relative to control; assay type: functional, U-87MG ATCC
U-87 MG [17] = assay: Antiproliferative activity against human U-87 MG cells assessed as inhibition of cell viability at 148 KBq incubated for 12 hrs followed by replacement with fresh media and measured after 24 hrs by CCK-8 method relative to control; assay type: functional, U-87MG ATCC
U-87 MG [18] = assay: Antitumor activity against human U-87 MG cells xenografted in female BALB/c nude mouse model assessed as tumor growth inhibition at 0.37 MBq, iv measured after 8 days postinjection relative to control; assay type: functional, U-87MG ATCC; conditions: time 8 day
U-87 MG [19] = assay: Antitumor activity against human U-87 MG cells xenografted in female BALB/c nude mouse model assessed as tumor growth inhibition at 0.74 MBq, iv measured after 8 days postinjection relative to control; assay type: functional, U-87MG ATCC; conditions: time 8 day
U-87 MG [20] = assay: Antitumor activity against human U-87 MG cells xenografted in female BALB/c nude mouse model assessed as tumor growth inhibition at 1.11 MBq, iv measured after 8 days postinjection relative to control; assay type: functional, U-87MG ATCC; conditions: time 8 day
U-87 MG [21] = assay: Antitumor activity against human U-87 MG cells xenografted in female BALB/c nude mouse model assessed as tumor growth inhibition at 0.37 MBq, iv measured after 36 days postinjection relative to control; assay type: functional, U-87MG ATCC; conditions: time 36 day
U-87 MG [22] = assay: Antitumor activity against human U-87 MG cells xenografted in female BALB/c nude mouse model assessed as tumor growth inhibition at 0.74 MBq, iv measured after 36 days postinjection relative to control; assay type: functional, U-87MG ATCC; conditions: time 36 day
[23] = Toxicity in female BALB/c nude mouse model assessed as animal death at 0.74 MBq, iv measured after 38 days; assay type: organism-based; conditions: in vivo, 912 h, time 38 day
[24] = Toxicity in female BALB/c nude mouse model assessed as animal death at 1.11 MBq, iv measured after 10 days; assay type: organism-based; conditions: in vivo, 240 h, time 10 day
[25] = Toxicity in female BALB/c nude mouse model assessed as body weight loss measured at 0.74 to 1.11 MBq, iv after 40 days of postinjection; assay type: organism-based; conditions: in vivo, 960 h, dose 0.74-1.11 MBq, time 40 day
[26] = Toxicity in female BALB/c nude mouse assessed as red blood cell count at 0.37 to 1.11 MBq, iv measured after 7 days of postinjection by blood analysis; assay type: organism-based; conditions: in vivo, 168 h, dose 0.37-1.11 MBq, time 7 day
[27] = Toxicity in female BALB/c nude mouse assessed as effect on liver at 0.37 to 1.11 MBq, iv measured after 7 days of postinjection by H and E staining based analysis; assay type: organism-based; conditions: in vivo, 168 h, dose 0.37-1.11 MBq, time 7 day
[28] = Toxicity in female BALB/c nude mouse assessed as hemoglobin indices at 0.37 to 1.11 MBq, iv measured after 7 days of postinjection by blood analysis; assay type: organism-based; conditions: in vivo, 168 h, dose 0.37-1.11 MBq, time 7 day
[29] = Toxicity in female BALB/c nude mouse assessed as decrease platelet count at 0.37 to 1.11 MBq, iv measured after 7 days of postinjection by blood analysis; assay type: organism-based; conditions: in vivo, 168 h, dose 0.37-1.11 MBq, time 7 day
[30] = Toxicity in female BALB/c nude mouse assessed as effect on lung at 0.37 to 1.11 MBq, iv measured after 7 days of postinjection by H and E staining based analysis; assay type: organism-based; conditions: in vivo, 168 h, dose 0.37-1.11 MBq, time 7 day
[31] = Toxicity in female BALB/c nude mouse assessed as effect on kidney at 0.37 to 1.11 MBq, iv measured after 7 days of postinjection by H and E staining based analysis; assay type: organism-based; conditions: in vivo, 168 h, dose 0.37-1.11 MBq, time 7 day
[32] = Toxicity in female BALB/c nude mouse assessed as effect on stomach at 0.37 to 1.11 MBq, iv measured after 7 days of postinjection by H and E staining based analysis; assay type: organism-based; conditions: in vivo, 168 h, dose 0.37-1.11 MBq, time 7 day
[33] = Toxicity in female BALB/c nude mouse assessed as thyroid gland damage at 1.11 MBq, iv measured after 7 days of postinjection by H and E staining based analysis; assay type: organism-based; conditions: in vivo, 168 h, time 7 day
[34] = Drug uptake in human FAPalpha-negative MCF7 cells incubated for 120 min by gamma counter analysis relative to control; assay type: ADME, cell-based; conditions: mcf7, 2 h

Compound: N#C[C@@H]1CC(F)(F)CN1C(=O)CNC(=O)c1ccnc2ccc(OCCCN3CCN(C(=O)CCCc4ccc([At])cc4)CC3)cc12
Activity (U-87 MG [4]): Active
Activity (U-87 MG [5]): Active
Activity (U-87 MG [6]): Active

Compound: N#C[C@@H]1CC(F)(F)CN1C(=O)CNC(=O)c1ccnc2ccc(OCCCN3CCN(C(=O)c4ccc([211At])cc4)CC3)cc12
logP [1]: 1.96
Stability [7]: 71%

Compound: N#C[C@@H]1CC(F)(F)CN1C(=O)CNC(=O)c1ccnc2ccc(OCCCN3CCN(C(=O)CCCc4ccc([211At])cc4)CC3)cc12
Stability [8]: 91.4%
Stability [9]: 88.17%
Activity (Albumin [10]): 7.63%
logP [1]: 2.37
Activity (Albumin [11]): 3.54%
Activity (Albumin [12]): 4.01%
Drug uptake [13]: 2.06%
Drug uptake [14]: 40.8%
Drug uptake [15]: 12.86%
inhibition (INH) (U-87 MG [16]): 70.95%
inhibition (INH) (U-87 MG [17]): 48.58%
TGI (U-87 MG [18]): 84.98%
TGI (U-87 MG [19]): 92.28%
TGI (U-87 MG [20]): 94.99%
TGI (U-87 MG [21]): 10.46%
TGI (U-87 MG [22]): 4.2%
Activity [23]: Toxic
Activity [24]: Toxic
Activity [25]: Non-toxic
Activity [26]: Non-toxic
Activity [27]: Non-toxic
Activity [28]: Non-toxic
Activity [29]: Toxic
Activity [30]: Non-toxic
Activity [31]: Non-toxic
Activity [32]: Non-toxic
Activity [33]: Toxic

More lines, now with the values ahead:

logP [1]: 2.12
Compound: N#C[C@@H]1CC(F)(F)CN1C(=O)CNC(=O)c1ccnc2ccc(OCCCN3CCN(C(=O)c4ccc([131I])cc4)CC3)cc12

Drug uptake [2]: 2.75%
Drug uptake [3]: 11.22%
Compound: [211AtH]

logP [1]: 2.43
Drug uptake [13]: 3.71%
Drug uptake [34]: 7.77%
Compound: N#C[C@@H]1CC(F)(F)CN1C(=O)CNC(=O)c1ccnc2ccc(OCCCN3CCN(C(=O)CCCc4ccc([131I])cc4)CC3)cc12
